Measured values from ChEMBL document CHEMBL5608141, “Identification of compartment-specific drug sensitivities in CRC organoid-stroma co-cultures” (2024).

Key:
Type in all cases: functional, Homo sapiens
Design in all cases: dose or concentration left out as unconfirmed
Colon cancer organoid [1] = assay: Identification of compartment-specific drug sensitivities in O06 CRC organoid-stroma F06 CAF co-cultures. Organoid is transduced with Lucferase2-P2A-EGFP lentivirus, fibroblast with Renilla-dsRed lentivirus. Dual-Glo Luciferase assay is used to report viability data.
Colon cancer organoid [2] = assay: Identification of compartment-specific drug sensitivities in O20 CRC organoid-stroma F20 CAF co-cultures. Organoid is transduced with Lucferase2-P2A-EGFP lentivirus, fibroblast with Renilla-dsRed lentivirus. Dual-Glo Luciferase assay is used to report viability data.
Colon cancer organoid [3] = assay: Identification of compartment-specific drug sensitivities in O14 CRC organoid-stroma F14 CAF co-cultures. Organoid is transduced with Lucferase2-P2A-EGFP lentivirus, fibroblast with Renilla-dsRed lentivirus. Dual-Glo Luciferase assay is used to report viability data.
[4] = Transduced with Lucferase2-P2A-EGFP lentivirus
[5] = Transduced with Renilla-dsRed lentivirus

Compound	Cell Viability (Colon cancer organoid [1]; [4]) [%]	Cell Viability (Colon cancer organoid [1]; [5]) [%]	Cell Viability (Colon cancer organoid [2]; [4]) [%]	Cell Viability (Colon cancer organoid [2]; [5]) [%]	Cell Viability (Colon cancer organoid [3]; [4]) [%]	Cell Viability (Colon cancer organoid [3]; [5]) [%]
COc1cc(-c2cn([C@H]3CCc4ccccc4N(CC(F)(F)F)C3=O)nn2)ccc1-n1ccc(C)n1	66.2416	74.3796	70.0794	119.033	96.3015	79.1491
C=CC(=O)Nc1ccc2[nH]c(=O)n(C3CCN(C(=O)c4ccc(-c5nc6cc[nH]c(=O)c6cc5-c5ccccc5)cc4)CC3)c2c1	100.634	129.997	102.668	80.5582	66.8064	102.36
O=C(NCCCN1CCOC1=O)c1cnc(NCc2cc(Br)ccc2Br)nc1NC1CCCC1	72.4903	99.9468	103.947	94.0994	120.927	72.8786
CN(C)C(=O)c1ccc(-c2cc(C(=O)N(C)C3CCCC3)no2)cc1O	126.057	129.278	123.545	110.433	137.993	111.926
CCN(Cc1ccc(Cl)cc1)c1ncc(C(=O)NCCCN2CCCC2=O)c(NC2CCCC2)n1	93.3549	154.26	67.2116	104.655	127.363	88.0275
O=C(O)c1ccc(-c2coc3ncc(-c4ccccc4)cc23)cc1Cl	84.9927	102.883	189.357	126.188	182.141	68.2046
c1ccc2oc(-c3csc(C4CCN(Cc5nc6ncccc6[nH]5)CC4)n3)cc2c1	118.221	124.83	55.8704	105.216	115.362	96.8387
CN(C(=O)c1cnn2cccnc12)c1cc2c(cc1N1CCOCC1)C(=O)N(C[C@@H](F)C(C)(C)O)C2	93.6773	65.3185	85.5909	89.8275	98.5166	101.353
c1ccc(C2CCN(c3cnc4c(N5CCOCC5)nccn34)CC2)cc1	25.484	144.176	90.2822	108.246	130.379	77.7891
COc1cc(Nc2nc(C)cc(-c3cnn4nc(OC)ccc34)n2)cc(C(F)(F)F)c1	17.5131	98.9895	136.021	99.6244	120.94	74.993
CN(C)C(=O)N1CC[C@H](NC2=Nc3cc(F)ccc3N(CC(F)F)c3ccc(Cl)cc32)C1	22.5333	79.8107	71.357	98.2431	119.43	91.6025
CCOc1ccc(S(=O)(=O)Nc2ccc(Cl)cc2C#Cc2cnc(C(=O)[O-])cc2OC)c2ncccc12.[K+]	117.764	113.31	110.493	117.362	103.028	89.48
CC1=CC(C)=[N+]2C1=C(CCCCc1cn(CC(=O)N3CCc4nc(NC(=O)[C@H]5CCN(C#N)C5)sc4C3)nn1)c1c(C)cc(C)n1[B-]2(F)F	125.029	111.523	77.3724	101.216	84.8013	97.3387
COc1cc(OC)cc(-c2noc(N3CCN(C)C4(CCN(c5ccccc5)CC4)C3)n2)c1	67.7845	115.277	90.427	110.491	135.567	106.85
COc1ccccc1C(=O)Nc1cc2c(cc1N1CCNCC1C)n(C)c(=O)n2C (stereo unspecified)	112.155	138.916	131.273	107.173	118.564	101.199
COc1cccc2c1C(=O)c1c(O)c3c(c(O)c1C2=O)CC(O)(C(=O)CO)CC3OC1CC(N)C(O)C(C)O1.Cl (stereo unspecified)	14.9439	235.56	5.3877	237.178	3.454	89.9373
